Results: patent US6759397B2, “Ginsenoside chemotherapy” (The University of British Columbia, priority 2000, dated 2004)
Like-named read-outs stand apart in the source and are kept apart here.

Assays:
[1] = test system: MDA435/LCC6M cells; test: Viable cell count, Rh2 with paclitaxel, multidrug resistant breast cancer cells expressing P-glycoprotein; details: for IC50: Homo sapiens, MDA435, 24 h
Experimental: (§1) Human breast cancer cells MDA435/LCC6 cells, both wild-type (MDA435/LCC6W) or a drug resistant strain expressing a transfected multidrug resistant gene encoding P-glycoprotein (MDA435/LCC6M), were incubated with 20 μg/ml or 30 μg/ml of Rh2 in the presence of paclitaxel at various concentrations. Viable cells were counted 24 hrs after treatment.

[2] = test system: MDA435/LCC6W cells; test: Viable cell count, Rh2 with paclitaxel, wild-type breast cancer cells; assay type: cell-based; details: Homo sapiens, L6W (wild-type MDA435/LCC6W)
Experimental: as §1

[3] = test system: human prostate cancer cells LNCaP; test: Cytotoxicity of Rh2 with mitoxantrone or paclitaxel, cellular viability of LNCaP cells; assay type: cell-based
Excerpt: In one aspect, the invention provides therapeutically synergistic effects of Rh2 with chemotherapeutic compounds.

[4] = test system: Mesothelioma cells (MS-1 cells); test: Viability of non-Pgp multidrug resistant mesothelioma cells, Rh2 with cisplatin or paclitaxel; assay type: cell-based
[5] = test system: MDA435/LCC6M cells
Experimental: as §1

SMILES	IC50 ([1]; read-out: Calculated IC50 of paclitaxel, Pac. + 20 μg/ml Rh2) [nM]	IC50 ([1]; read-out: Calculated IC50 of paclitaxel, Pac. + 30 μg/ml Rh2) [nM]	IC50 ([1]; read-out: Calculated IC50 of paclitaxel, Paclitaxel alone) [nM]	Paclitaxel concentration at which cytotoxicity was shown in the presence of Rh2 ([1]; MDA435/LCC6M, with Rh2, as low as) [nM]	IC50 ([2]; no Rh2, viable cells counted 24 hrs after treatment, read-out: Calculated IC50 of paclitaxel, Paclitaxel alone) [nM]	IC50 ([2]; with 20 μg/ml Rh2, 24 hrs, read-out: Calculated IC50 of paclitaxel, Pac. + 20 μg/ml Rh2) [nM]	IC50 ([2]; with 30 μg/ml Rh2, 24 hrs, read-out: Calculated IC50 of paclitaxel, Pac. + 30 μg/ml Rh2) [nM]	Effect of Rh2 alone on the cells ([1]; MDA435/LCC6M, 20 or 30 μg/ml Rh2, 24 hrs)	Cytotoxicity of Rh2 alone ([3]; 20 μg/ml Rh2, LNCaP)	Effect of Rh2 on cytotoxicity of paclitaxel ([3]; 20 μg/ml Rh2, particularly 0.1 nM and 1 nM paclitaxel, LNCaP)	Effect of Rh2 on cytotoxicity of mitoxantrone ([3]; 20 μg/ml Rh2, wide range of mitoxantrone concentrations, LNCaP)	Synergistic effect of Rh2 with cisplatin ([4]; 20 μg/ml Rh2, various cisplatin concentrations)	Synergistic effect of Rh2 with paclitaxel ([4]; 20 μg/ml Rh2, various paclitaxel concentrations)	Effect of Rh2 on cytotoxicity of paclitaxel [5]
CC(=O)O[C@H]1C(=O)[C@@]2(C)[C@H]([C@H](OC(=O)c3ccccc3)[C@]3(O)C[C@H](OC(=O)[C@H](O)[C@@H](NC(=O)c4ccccc4)c4ccccc4)C(C)=C1C3(C)C)[C@]1(OC(C)=O)CO[C@@H]1C[C@@H]2O [Paclitaxel]	0.15	< 0.03	631	0.1	248	75	25	–	–	–	–	–	–	–
CC(C)=CCC[C@](C)(O)[C@H]1CC[C@]2(C)[C@@H]1[C@H](O)C[C@@H]1[C@@]3(C)CC[C@H](O[C@@H]4O[C@H](CO)[C@@H](O)[C@H](O)[C@H]4O)C(C)(C)[C@@H]3CC[C@]12C [Rh2]	–	–	–	–	–	–	–	little or no effect on the cells	little or no significant cytotoxicity alone	added significantly to the cytotoxicity of paclitaxel	added significantly to the cytotoxicity of mitoxatron	significant	significant	unexpectedly and significantly enhanced by Rh2
